The conditions of the series: solid state.
Setting [1] is: amber glass, away from light, t = 1 month.
Setting [2] is: amber glass, away from light, t = 5 month.
The mark [3] stands for this setting: amber type II glass, away from light, t0, % area HPLC 240 nm.
Setting [4] is: amber glass, away from light, t = 4 months.
[5] abbreviates: amber glass, away from light, t = 2 months.
The mark [6] stands for this setting: amber glass, away from light, t = 6 months.

Here are results for 7 compounds from patent publication US20250340739A1 ([…] SOLUTIONS, priority 2022, published 2025).

Read-outs that look alike come from different tables or passages of the source.

Method: The elution is carried out by gradient. The mobile phase consists of ammonium formiate buffer 100 mM pH 4.5 (eluent A) and acetonitrile (eluent B). The composition of the mobile phase was modified continuously during the elution process according to the following Table II:

Regarding `CC1(C)C(/C=C/C=C/C=C/C=C2\N(CCCCS(=O)(=O)[O-])c3ccc4ccccc4c3C2(C)C)=[N+](CCCCS(=O)(=O)[O-])c2ccc3ccccc3c21.[Na+]` [Example 3, Indocyanine green], the “ICG purity (HPLC)” value is reported as 98.39% under setting [1], 97.95% under setting [2] and 98.60% under setting [3]. The “Total impurities (HPLC)” value is 1.61% under setting [1], 2.05% under setting [2] and 1.40% under setting [3].

For `CC1(C)C(/C=C/C=C/C=C/C=C2\N(CCCCS(=O)(=O)[O-])c3ccc4ccccc4c3C2(C)C)=[N+](CCCCS(=O)(=O)[O-])c2ccc3ccccc3c21.[Na+]` [NaBr, Indocyanine green], under setting [3], the “ICG purity (HPLC)” value was 99.95% and the “Total impurities (HPLC)” value came to 0.05%. Also, for the setting “t = 4 weeks”, the “ICG purity (HPLC)” value amounted to 99.84% and the “Total impurities (HPLC)” value was 0.16%.

Regarding `CC1(C)C(/C=C/C=C/C=C/C=C2\N(CCCCS(=O)(=O)[O-])c3ccc4ccccc4c3C2(C)C)=[N+](CCCCS(=O)(=O)[O-])c2ccc3ccccc3c21.[Na+]` [NaOAsc, Indocyanine green], under setting [3], the “ICG purity (HPLC)” value came out at 99.95% and the “Total impurities (HPLC)” value worked out at 0.05%. Under “t = 8 weeks”, the “ICG purity (HPLC)” value amounted to 99.72% and the “Total impurities (HPLC)” value worked out at 0.28%.

As for `CC1(C)C(/C=C/C=C/C=C/C=C2\N(CCCCS(=O)(=O)[O-])c3ccc4ccccc4c3C2(C)C)=[N+](CCCCS(=O)(=O)[O-])c2ccc3ccccc3c21.[Na+]` [NaOEt, Indocyanine green], under setting [3], the “ICG purity (HPLC)” value amounted to 99.58% and the “Total impurities (HPLC)” value is given as 0.42%. For the same compound, where the note is “t = 8 weeks”, the “ICG purity (HPLC)” value is on record as 99.34% and the “Total impurities (HPLC)” value is 0.66%.

As for `CC1(C)C(/C=C/C=C/C=C/C=C2\N(CCCCS(=O)(=O)[O-])c3ccc4ccccc4c3C2(C)C)=[N+](CCCCS(=O)(=O)[O-])c2ccc3ccccc3c21.[Na+]` [Example 4, Indocyanine green], the “ICG purity (HPLC)” value is, setting by setting: under setting [4], 94.11%; under setting [3], 95.98%. The “Total impurities (HPLC)” value by setting is: under setting [4], 5.89%; under setting [3], 4.02%.

Consider `CC1(C)C(/C=C/C=C/C=C/C=C2\N(CCCCS(=O)(=O)[O-])c3ccc4ccccc4c3C2(C)C)=[N+](CCCCS(=O)(=O)[O-])c2ccc3ccccc3c21.[Na+]` [Example 2, Indocyanine green], for which the “ICG purity (HPLC)” value is recorded as 99.25% under setting [1], 99.09% under setting [5], 99.03% under setting [6] and 99.21% under setting [3]. The “Total impurities (HPLC)” value was determined as 0.75% under setting [1], 0.91% under setting [5], 0.97% under setting [6] and 0.79% under setting [3].

As to `CC1(C)C(/C=C/C=C/C=C/C=C2\N(CCCCS(=O)(=O)[O-])c3ccc4ccccc4c3C2(C)C)=[N+](CCCCS(=O)(=O)[O-])c2ccc3ccccc3c21.[Na+]` [NaOAc, Indocyanine green], under setting [3], the “ICG purity (HPLC)” value was 99.95% and the “Total impurities (HPLC)” value was found to be 0.05%. Besides, where the note is “t = 8 weeks”, the “ICG purity (HPLC)” value is recorded as 99.65% and the “Total impurities (HPLC)” value came out at 0.35%.
